Experimental data published in patent US10934273B2, “Crystalline forms of 4-(2-((1R,2R)-2-hydroxycyclohexylamino)benzothiazol-6-yloxy)-N-methylpicolinamide” (Novartis AG, priority 2016, dated 2021).
Counter-ions that a name gives are not always drawn. Like-named read-outs stand apart in the source and are kept apart here.

Tests used:
Type in all cases: physicochemical
[1] = Aqueous solubility; conditions: aqueous medium, aqueous buffer
Method: (§1) The crystalline di-hydrochloride monohydrate salt of 4-(2-((1R,2R)-2-hydroxycyclohexylamino)benzothiazol-6-yloxy)-N-methylpicolinamide (Form A) exists primarily as a crystalline material. Form A is hygroscopic, having a maximum water uptake of about 10.79% at 25° C. and up to 95% relative humidity (RH)). […] Form A has a very low aqueous solubility at neutral pH (about 0.006 mg/mL), however it has a high aqueous solubility at low pH (about >20 mg/mL).

[2] = Hygroscopicity (water uptake / exposure to humidity)
Method: as §1

[3] = Intrinsic dissolution rate; conditions: pH 4.5; Form A versus Form B
[4] = Bulk physical and chemical stability (degradation under stress conditions)
Source text: Five hydrated forms of the di-hydrochloride salt were identified, which included the crystalline di-hydrochloride monohydrate salt of 4-(2-((1R,2R)-2-hydroxycyclohexylamino)benzothiazol-6-yloxy)-N-methylpicolinamide (Form A) discussed herein.

CNC(=O)c1cc(Oc2ccc3nc(N[C@@H]4CCCC[C@H]4O)sc3c2)ccn1 [Form A, Di-Hydrochloride Monohydrate Salt of 4-(2-((1R,2R)-2-hydroxycyclohexylamino)benzothiazol-6-yloxy)-N-methylpicolinamide]
solubility ([1]; low pH, read-out: aqueous solubility at low pH): > 20000 µg/mL
solubility ([1]; neutral pH, read-out: aqueous solubility at neutral pH): ~6 µg/mL
maximum water uptake ([2]; 25° C., up to 95% relative humidity (RH)): about 10.79%
phase change on exposure to humidity ([2]; exposure to humidity): little to no phase change
intrinsic dissolution rate relative to mono-hydrochloride salt (Form B) [3]: about 150 fold
thermodynamic stability compared to the other four hydrated forms ([4]; ambient conditions): more thermodynamically stable hydrate
degradation of bulk drug substance ([4]; one to two weeks at 50° C., 75% relative humidity): less than 1%
degradation of bulk drug substance ([4]; one to two weeks at 50° C., ambient relative humidity): less than 1%
degradation of bulk drug substance ([4]; one week at 80° C., ambient relative humidity): less than 1%
